Experimental data published in patent US8252807B2, “Methods of inhibiting the interaction between S100 and the receptor for advanced glycation end-products” (Board of Regents, The University of Texas System, priority 2007, dated 2012).

What was measured:
[1] = background statement; cited from earlier work
SKOV3 ovarian cells = assay: SKOV3 ovarian cell viability with taxol; format: cell-based; settings: taxol 5 μM, cromolyn 10 μM, 48 hours
Description: SKOV3 ovarian cells were plated and treated with taxol (5 μM) either in the presence or absence of cromolyn (10 μM) for 48 hours. Cell viability was analyzed after 48 hours. *, P<0.05.

BxPC-3 cells [2] = assay: BxPC-3 cell growth (MTS); format: cell-based; settings: 48 hours; for BxPC-3 basal cell proliferation, mean: 0 μM mean=1.2
Description: BxPC-3 cells were plated at 1.0×10^3 cells/well and treated with 0 μM, 1 μM, 10 μM, and 100 μM of cromolyn, and cell proliferation was analyzed after 48 hours. Means and 95% confidence intervals of three independent experiments performed in triplicate are shown. *, P=0.002; †, P<0.001 versus control. Growth of Panc-1 and BxPC3 pancreatic adenocarcinoma cells was analyzed using MTS reagent (Promega, Madison, Wis.) according to the manufacturer's directions. Purified S100P (100 nM final concentration) with or without cromolyn (100 μM final concentration) was added to Panc-1 cells. Only cromolyn (0-100 μM) was added to BxPC-3 cells, which express endogenous S100P. For both cell models, 1.0×10^3 cells/well were plated in 96-well culture dishes. Cells were treated with S100P, PDGF, or cromolyn, or a combination, followed immediately by treatment with either S100P or PDGF. MTS (20 μL per well) was added to cells at various times, and the mixture was incubated for 1 hour at 37° C. Samples were then read at 490 nm (as O.D. units) on a uQuant-Microplate Spectrophotometer (Bio-Tek Services Inc., Richmond, Va.). The assay was performed three times in triplicate.

[3] = tested on: NFκB promoter activity in Panc-1 cells; assay: Luciferase assay for NFκB activity, Panc-1; format: cell-based
Description: FIGS. 3A, 3B, and 3C show the effect of cromolyn on S100P stimulated NFκB promoter activity in pancreatic cancer cells in vitro and in vivo. Panc-1 and BxPC-3 pancreatic cancer cell lines stably expressing an NFκB luciferase reporter were examined for the effects of S100P and cromolyn. […] Means and 95% confidence intervals are shown for three independent experiments performed in triplicate. *, P=0.022, †, P<0.001, and ‡, P<0.001 versus control; #, P=0.005 versus 100 nM S100P alone. […] Means and 95% confidence intervals are shown for three independent experiments performed in triplicate. *, P=0.003, †, P<0.001 versus control. […] After 1 week, tumor growth was assessed and NFκB activity was analyzed using an IVIS system (Xenogen Corp., Alameda, Calif.) after injecting mice with D-luciferin (150 mg per kg body weight) (0 time point). The mice were treated with cromolyn (5 mg per kg body weight by intraperitoneal injection), and NFκB luciferase activity was analyzed again at 24 and 48 hours. *, P=0.005 versus control. Means and 95% confidence intervals are shown for two independent experiments (n=4 mice per group). Two-tailed two-sample (unpaired for in vitro and paired for in vivo studies) Student's t-tests were used to determine P values.
To study pancreatic cancer cell NFκB activity, a lentivirus NFκB luciferase reporter gene construct was developed. The NFκB luciferase reporter gene was excised and isolated from the pNF-κB-Luc Vector (Clonetec, Mountain View, Calif.) and cloned into the lentiviral vector FG9 (Gift from Dr. Xiao-Feng Qin, Dept. of Immunology, M.D. Anderson Cancer Center replacing the CMV/LTR and UBiC promoters, to form Lenti-NFκB-Luc. Lentiviral NFκB vector were co-transfected with packaging constructs pRSVREV, pMDLg/pRRE, and the VSV-G expression plasmid pHCMVG, and lentivirus was produced in 293T cells by the calcium transfection method, as previously described in Qin, et al., Inhibiting HIV-1 infection in human T cells by lentiviral-mediated delivery of small interfering RNA against CCR5; Proc. Natl. Acad. Sci. U.S.A. 2003 Jan. 7; 100(1):183-8. […] Functional validation of NFκB reporter activity was conducted in vitro using TNF-α (20 ng/mL, Sigma, St. Louis, Mo.) as a positive control.
BxPC-3 and Panc-1 cells stably expressing a Lenti-NFkB-luc reporter construct were treated with S100P, cromolyn, or the combination for 5 hours. D-luciferin (150 μg/mL) was added to the cells, and luciferase activity was measured using an IVIS bioluminescence system (Xenogen Co. Alameda, Calif.). Each experiment was conducted three times in triplicate.

S100B with RAGE = S100B with RAGE (Homo sapiens, UniProt P04271); assay: S100B binding with RAGE ELISA (sRAGE coated plate)
Source text: After removing un-bound S100B by washing with detergent, bound S100B and RAGE complex was quantified by adding HRP labeled antibody against S100B.

BxPC-3 cells [4] = assay: BxPC-3 cell viability, 72 hours; format: cell-based
Description: BxPC-3 cells were plated at 1.0×10^3 cells/well and treated with 0 μM, 1 μM, 10 μM, and 100 μM of cromolyn or C5 alone or in combination with gemcitabine 1 μM and cell viability was analyzed after 72 hours. Two-tailed two-sample (unpaired) Student's t-tests were used to determine P values. […] BxPC-3 cells were plated at 1.0×10^3 cells/well and treated with either 100 μM of cromolyn or 1 μM C5 alone or in combination with gemcitabine (1 μM) and cell viability was analyzed after 72 hours.

PC3 prostate cells = assay: PC3 prostate cell viability with taxol; format: cell-based; settings: taxol 100 nM, cromolyn 10 μM, 48 hours
Description: PC3 prostate cells were plated and treated with taxol (100 nM) either in the presence or absence of cromolyn (10 μM) for 48 hours. Cell viability was analyzed after 48 hours. *, P<0.05.

Chain of S100B with RAGE (P04271 whole entry, species assumed): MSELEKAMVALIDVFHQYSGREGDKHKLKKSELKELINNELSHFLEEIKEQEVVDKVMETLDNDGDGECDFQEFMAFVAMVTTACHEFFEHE

O=C(O)c1cc(=O)c2c(OCC(O)COc3cccc4oc(C(=O)O)cc(=O)c34)cccc2o1 [cromolyn, disodium 1,3-bis[(2′-carboxylatochromon-5′-yl)oxy]-2-hydroxypropane]
permeability to cells [1]: impermeant to cells
cell killing effect of taxol on ovarian cancer cells (SKOV3 ovarian cells): increased the cell killing effect of taxol
BxPC-3 cell proliferation, difference versus 0 μM (BxPC-3 cells [2]; cromolyn 10 μM): 0.5 MTS units
BxPC-3 basal cell proliferation, mean (BxPC-3 cells [2]; cromolyn 10 μM): 0.7 MTS units
BxPC-3 cell proliferation, difference versus 0 μM (BxPC-3 cells [2]; cromolyn 100 μM): 0.6 MTS units
BxPC-3 basal cell proliferation, mean (BxPC-3 cells [2]; cromolyn 100 μM): 0.6 MTS units
NFκB promoter activity in Panc-1 cells, mean ([3]; S100P 100 nM + cromolyn 100 μM, 5 hours, S100P alone mean=14460): 7360 photons/sec
NFκB promoter activity in Panc-1 cells, difference S100P alone versus combination with cromolyn ([3]; S100P 100 nM, cromolyn 100 μM): 7100 photons/sec
basal NFκB activity in Panc-1 cells ([3]; cromolyn 100 μM, no S100P, 5 hours): no effect
interaction of S100B with RAGE (S100B with RAGE): inhibit the interaction of S100B with RAGE
BxPC-3 cell viability (BxPC-3 cells [4]; 1-100 μM, alone or with gemcitabine 1 μM): inhibit BxPC-3 cell viability
concentration giving the same level of cell reduction in combination with gemcitabine (BxPC-3 cells [4]; with gemcitabine 1 μM): 100 µM
cell killing effect of taxol on prostate cancer cells (PC3 prostate cells): increased the cell killing effect of taxol
